# Results from patent US8999355B2, “Non-rinse off cosmetic composition and a cosmetic product comprising said composition” (Natura Cosmeticos S.A., priority 2005, dated 2015).
# Experiment: In vitro tests of lamellar structure formation
# Type: physicochemical
# Settings: RMT associated to palmitic acid
substance,measurement,value
ricinoleyl monomaleate triglyceride [RMT],structure formed,form a lamellar structure very similar to the lamellar gel structure that is naturally present in healthy skins
